According to US9278981B2, “Compounds and compositions for inhibiting the activity of ABL1, ABL2 and BCR-ABL1” (Novartis AG, priority 2012, dated 2016):
pIC50: −log10 of the molar value.

Columns and labels:
ABL1 (64-515) [1] = molecular target: T1, ABL1 (64-515) (Homo sapiens (Human), UniProt P00519); assay: Caliper ABL1 (64-515) assay (microfluidic mobility shift); type: biochemical
ABL1 (64-515) [2] = molecular target: T1, ABL1 (64-515); assay: Radio ABL1 (64-515) assay (radiometric filter-binding); type: biochemical

T1 sequence (P00519 64-515): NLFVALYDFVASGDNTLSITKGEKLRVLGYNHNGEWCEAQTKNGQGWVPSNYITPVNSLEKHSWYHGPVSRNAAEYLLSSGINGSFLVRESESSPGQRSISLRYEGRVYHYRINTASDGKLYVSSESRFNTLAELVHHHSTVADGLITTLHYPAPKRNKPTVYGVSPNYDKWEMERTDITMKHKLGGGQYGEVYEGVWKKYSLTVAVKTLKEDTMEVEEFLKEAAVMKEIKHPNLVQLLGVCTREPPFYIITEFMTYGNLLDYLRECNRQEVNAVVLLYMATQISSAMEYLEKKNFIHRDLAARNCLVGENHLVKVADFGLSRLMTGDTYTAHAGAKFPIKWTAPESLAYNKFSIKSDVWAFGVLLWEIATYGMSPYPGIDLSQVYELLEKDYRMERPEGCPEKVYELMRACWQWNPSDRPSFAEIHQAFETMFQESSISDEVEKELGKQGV

Compound	pIC50 (ABL1 (64-515) [1])	pIC50 (ABL1 (64-515) [2])
O=C(Nc1ccc(OC(F)(F)F)cc1)c1cnc(N2CC[C@@H](O)C2)c(-c2ccc(CO)nc2)c1 [Example 42, (R)-6′-(Hydroxymethyl)-2-(3-hydroxypyrrolidin-1-yl)-N-(4-(trifluoromethoxy)phenyl)-[3,3′-bipyridine]-5-carboxamide]	9.10	> 8.52
O=C(Nc1ccc(OC(F)(F)F)cc1)c1cnc(N2CC[C@@H](O)C2)c(-c2cncc(F)c2)c1 [Example 45, (R)-5′-Fluoro-2-(3-hydroxypyrrolidin-1-yl)-N-(4-(trifluoromethoxy)phenyl)-[3,3′-bipyridine]-5-carboxamide]	8.96	> 8.52
O=C(Nc1ccc(OC(F)(F)F)cc1)c1cnc(N2CC[C@@H](O)C2)c(-c2ccc(F)nc2)c1 [Example 47, (R)-6′-Fluoro-2-(3-hydroxypyrrolidin-1-yl)-N-(4-(trifluoromethoxy)phenyl)-[3,3′-bipyridine]-5-carboxamide]	8.92	8.52
O=C(Nc1ccc(OC(F)(F)F)cc1)c1cnc(N2CC[C@@H](O)C2)c(-c2cnccc2F)c1 [Example 48, (R)-4′-Fluoro-2-(3-hydroxypyrrolidin-1-yl)-N-(4-(trifluoromethoxy)phenyl)-[3,3′-bipyridine]-5-carboxamide]	9.10	8.38
O=C(Nc1ccc(OC(F)(F)F)cc1)c1cnc(N2CC[C@@H](O)C2)c(-c2cc(F)cnc2F)c1 [Example 49, (R)-2′,5′-Difluoro-2-(3-hydroxypyrrolidin-1-yl)-N-(4-(trifluoromethoxy)phenyl)-[3,3′-bipyridine]-5-carboxamide]	8.46	8.30
O=C(Nc1ccc(OC(F)(F)F)cc1)c1cnc(N2CC[C@@H](O)C2)c(-c2cncc(Cl)c2)c1 [Example 50, (R)-5′-Chloro-2-(3-hydroxypyrrolidin-1-yl)-N-(4-(trifluoromethoxy)phenyl)-[3,3′-bipyridine]-5-carboxamide]	8.96	8.52
O=C(Nc1ccc(OC(F)(F)F)cc1)c1cnc(N2CC[C@@H](O)C2)c(-c2ccc(C(F)(F)F)nc2)c1 [Example 51, (R)-2-(3-Hydroxypyrrolidin-1-yl)-N-(4-(trifluoromethoxy)phenyl)-6′-(trifluoromethyl)-[3,3′-bipyridine]-5-carboxamide]	8.54	> 8.52
O=C(Nc1ccc(OC(F)(F)F)cc1)c1cnc(N2CC[C@@H](O)C2)c(-c2cnc(Cl)c(F)c2)c1 [Example 53, (R)-6′-Chloro-5′-fluoro-2-(3-hydroxypyrrolidin-1-yl)-N-(4-(trifluoromethoxy)phenyl)-[3,3′-bipyridine]-5-carboxamide]	9.40	> 8.52
N#Cc1cncc(-c2cc(C(=O)Nc3ccc(OC(F)(F)F)cc3)cnc2N2CC[C@@H](O)C2)c1 [Example 54, (R)-5′-Cyano-2-(3-hydroxypyrrolidin-1-yl)-N-(4-(trifluoromethoxy)phenyl)-[3,3′-bipyridine]-5-carboxamide]	9.05	8.30
O=C(Nc1ccc(OC(F)(F)F)cc1)c1cnc(N2CC[C@@H](O)C2)c(-c2cccc(F)c2)c1 [Example 58, (R)-5-(3-Fluorophenyl)-6-(3-hydroxypyrrolidin-1-yl)-N-(4-(trifluoromethoxy)phenyl)nicotinamide]	9.22	8.40
CC(C)(O)c1cc(F)cc(-c2cc(C(=O)Nc3ccc(OC(F)(F)F)cc3)cnc2N2CC[C@@H](O)C2)c1 [Example 60, (R)-5-(3-Fluoro-5-(2-hydroxypropan-2-yl)phenyl)-6-(3-hydroxypyrrolidin-1-yl)-N-(4-(trifluoromethoxy)phenyl)nicotinamide]	8.22	8.40
O=C(Nc1ccc(OC(F)(F)F)cc1)c1cnc(N2CC[C@@H](O)C2)c(-c2cc(F)cc(F)c2)c1 [Example 61, (R)-5-(3,5-Difluorophenyl)-6-(3-hydroxypyrrolidin-1-yl)-N-(4-(trifluoromethoxy)phenyl)nicotinamide]	9.30	8.40
COC(=O)c1cc(F)cc(-c2cc(C(=O)Nc3ccc(OC(F)(F)F)cc3)cnc2N2CC[C@@H](O)C2)c1 [Example 62, (R)-Methyl 3-fluoro-5-(2-(3-hydroxypyrrolidin-1-yl)-5-((4-(trifluoromethoxy)phenyl)carbamoyl)pyridin-3-yl)benzoate]	8.68	8.40
Nc1ncc(-c2cc(C(=O)Nc3ccc(OC(F)(F)F)cc3)cnc2N2CCCC2)cn1 [Example 68, 5-(2-Aminopyrimidin-5-yl)-6-(pyrrolidin-1-yl)-N-(4-(trifluoromethoxy)phenyl)nicotinamide]	9.05	> 8.52
O=C(Nc1ccc(OC(F)(F)F)cc1)c1cnc(N2CCCC2)c(-c2ccc(CO)nc2)c1 [Example 69, 6′-(Hydroxymethyl)-2-(pyrrolidin-1-yl)-N-(4-(trifluoromethoxy)phenyl)-[3,3′-bipyridine]-5-carboxamide]	9.30	> 8.52
O=C(Nc1ccc(OC(F)(F)F)cc1)c1cnc(N2C[C@H](O)[C@@H](O)C2)c(-c2cccnc2)c1 [Example 70, 2-((3S,4S)-3,4-Dihydroxypyrrolidin-1-yl)-N-(4-(trifluoromethoxy)phenyl)-[3,3′-bipyridine]-5-carboxamide]	9.40	> 8.52

Compound	pIC50 (ABL1 (64-515) [1])	pIC50 (ABL1 (64-515) [2])
Cc1ccc(-c2cc(C(=O)Nc3ccc(OC(F)(F)F)cc3)cnc2N2CC[C@@H](CO)C2)cn1 [Example 77, (R)-2-(3-(hydroxymethyl)pyrrolidin-1-yl)-6′-methyl-N-(4-(trifluoromethoxy)phenyl)-[3,3′-bipyridine]-5-carboxamide]	9.05	8.52
Cc1ccc(-c2cc(C(=O)Nc3ccc(OC(F)(F)F)cc3)cnc2N2CC[C@H](CO)C2)cn1 [Example 82, (S)-2-(3-(Hydroxymethyl)pyrrolidin-1-yl)-6′-methyl-N-(4-(trifluoromethoxy)phenyl)-[3,3′-bipyridine]-5-carboxamide]	9.22	> 8.52
O=C(Nc1ccc(OC(F)(F)F)cc1)c1cnc(N2CC[C@H](CO)C2)c(-c2ccc(CF)nc2)c1 [Example 84, (S)-6′-(Fluoromethyl)-2-(3-(hydroxymethyl)pyrrolidin-1-yl)-N-(4-(trifluoromethoxy)phenyl)-[3,3′-bipyridine]-5-carboxamide]	8.96	8.52
Cc1ncc(-c2cc(C(=O)Nc3ccc(OC(F)(F)F)cc3)cnc2N2CC[C@H](CO)C2)cc1F [Example 87, (S)-5′-Fluoro-2-(3-(hydroxymethyl)pyrrolidin-1-yl)-6′-methyl-N-(4-(trifluoromethoxy)phenyl)-[3,3′-bipyridine]-5-carboxamide]	9.15	8.22
O=C(Nc1ccc(OC(F)(F)F)cc1)c1cnc(N2CC[C@H](CO)C2)c(-c2ccc(Cl)nc2)c1 [Example 88, (S)-6′-Chloro-2-(3-(hydroxymethyl)pyrrolidin-1-yl)-N-(4-(trifluoromethoxy)phenyl)-[3,3′-bipyridine]-5-carboxamide]	> 9.89	8.40
O=C(Nc1ccc(OC(F)(F)F)cc1)c1cnc(N2CC[C@H](CO)C2)c(-c2cnc(Cl)c(F)c2)c1 [Example 89, (S)-6′-Chloro-5′-fluoro-2-(3-(hydroxymethyl)pyrrolidin-1-yl)-N-(4-(trifluoromethoxy)phenyl)-[3,3′-bipyridine]-5-carboxamide]	9.52	> 8.52
N#Cc1cncc(-c2cc(C(=O)Nc3ccc(OC(F)(F)F)cc3)cnc2N2CC[C@H](CO)C2)c1 [Example 90, (S)-5′-Cyano-2-(3-(hydroxymethyl)pyrrolidin-1-yl)-N-(4-(trifluoromethoxy)phenyl)-[3,3′-bipyridine]-5-carboxamide]	9.15	> 8.52
CN[C@H]1CCN(c2ncc(C(=O)Nc3ccc(OC(F)(F)F)cc3)cc2-c2cncnc2)C1 [Example 102, (S)-6-(3-(Methylamino)pyrrolidin-1-yl)-5-(pyrimidin-5-yl)-N-(4-(trifluoromethoxy)phenyl)nicotinamide]	8.64	> 8.52
CC(C)(O)C1CCN(c2ncc(C(=O)Nc3ccc(OC(F)(F)F)cc3)cc2-c2cncnc2)C1 (centres unmarked) [Example 113, 6-(3-(2-Hydroxypropan-2-yl)pyrrolidin-1-yl)-5-(pyrimidin-5-yl)-N-(4-(trifluoromethoxy)phenyl)nicotinamide]	8.82	> 8.52
O=C(Nc1ccc(OC(F)(F)F)cc1)c1cnc(N2CCC3(COC3)C2)c(-c2cncnc2)c1 [Example 116, 5-(Pyrimidin-5-yl)-6-(2-oxa-6-azaspiro[3.4]octan-6-yl)-N-(4-(trifluoromethoxy)phenyl)nicotinamide]	8.46	> 8.52
O=C(Nc1ccc(OC(F)(F)F)cc1)c1ccc(N2CCOC2=O)c(-c2cncnc2)c1 [Example 117, 4-(2-Oxooxazolidin-3-yl)-3-(pyrimidin-5-yl)-N-(4-(trifluoromethoxy)phenyl)benzamide]	8.26	9.40
Cc1ccc(-c2cc(C(=O)Nc3ccc(OC(F)(F)F)cc3)cnc2N2CC(O)C2)cn1 [Example 127, 2-(3-Hydroxyazetidin-1-yl)-6′-methyl-N-(4-(trifluoromethoxy)phenyl)-[3,3′-bipyridine]-5-carboxamide]	8.96	8.40
CC1(O)CN(c2ncc(C(=O)Nc3ccc(OC(F)(F)F)cc3)cc2-c2cccnc2)C1 [Example 130, 2-(3-Hydroxy-3-methylazetidin-1-yl)-N-(4-(trifluoromethoxy)phenyl)-[3,3′-bipyridine]-5-carboxamide]	8.92	8.52
Cc1ccc(-c2cc(C(=O)Nc3ccc(OC(F)(F)F)cc3)cnc2N2CC(C)(O)C2)cn1 [Example 131, 2-(3-Hydroxy-3-methylazetidin-1-yl)-6′-methyl-N-(4-(trifluoromethoxy)phenyl)-[3,3′-bipyridine]-5-carboxamide]	8.89	8.08
CC1(O)CN(c2ncc(C(=O)Nc3ccc(OC(F)(F)F)cc3)cc2-c2cncc(F)c2)C1 [Example 132, 5′-Fluoro-2-(3-hydroxy-3-methylazetidin-1-yl)-N-(4-(trifluoromethoxy)phenyl)-[3,3′-bipyridine]-5-carboxamide]	8.82	> 8.52
